PMC12670779, “Targeting the CXCL12/CXCR4 pathway by an optimized derivative or EPI-X4 preserves chondrocyte function and offers a novel therapeutic approach in rheumatic diseases” (Arthritis Research & Therapy, 2025)
Counter-ions that a name gives are not always drawn. Like-named read-outs stand apart in the source and are kept apart here. Residues, ends and D or L forms follow the SMILES beside them.

Experiments:
[1] = biological target: T1, CXCR4 (Homo sapiens, UniProt P61073); assay: Inhibition of CXCL12-induced β-arrestin-2 recruitment at CXCR4 (NanoBiT, transfected HEK293T cells); format: cell-based
T1 construct: SmBiT (NanoBiT fragment); expressed in transfected cells; host or cells: HEK293T
T1 sequence (P61073 whole entry, the tested form may be a part): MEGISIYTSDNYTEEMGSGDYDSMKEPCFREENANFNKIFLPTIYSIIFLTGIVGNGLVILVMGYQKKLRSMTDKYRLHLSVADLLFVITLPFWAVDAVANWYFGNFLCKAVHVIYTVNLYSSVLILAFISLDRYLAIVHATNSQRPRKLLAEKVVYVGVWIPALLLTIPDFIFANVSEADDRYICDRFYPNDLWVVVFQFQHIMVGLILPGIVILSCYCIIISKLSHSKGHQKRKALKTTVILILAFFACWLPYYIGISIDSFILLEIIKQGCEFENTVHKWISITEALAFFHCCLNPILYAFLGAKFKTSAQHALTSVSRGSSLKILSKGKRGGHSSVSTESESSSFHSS
Protocol: Fifteen thousand HEK293T cells were seeded in 92 µL complete DMEM medium (supplemented with 10% FCS, 1% L-Glutamine and 1% penicillin/streptomycin) and allowed to adhere overnight. On the next day cells were transfected with plasmids containing a β-arrestin-2 coupled to a SmBiT and a CXCR4 or ACKR3 construct coupled to the LgBiT of the NanoBiT protein–protein-interaction assay system. […] For the transfection, LT1 transfection reagent was used according to manufacturer’s instructions. The next day, medium was changed to 100µL pre-warmed OptiMEM before luminescence measurements were initiated.
For antagonism measurements, cells were first supplied with compounds and 10 min later with 30 nM CXCL12. Subsequently, luminescence signal was measured over 1 h. Baseline luminescence of each well in the first 10 min was averaged and used to calculate the signal-to-noise ratio for all subsequent time points of the same well. The signal-to-noise ratios were further recalculated as a ratio to the average of buffer-only treated wells. These values were plotted over time and areas under curve (AUCs) were determined for each well. Data were normalized to buffer-only wells as 0% and CXCL12-only treated wells as 100%.

[2] = test system: human articular chondrocytes (hAC); assay: Ki-67 immunocytochemistry (proliferation); format: cell-based; conditions: 48 h; 200 ng/mL CXCL12; simultaneous addition of inhibitors 1 µM; n = 4
Protocol: On the next day, an Alexa Fluor 488 labled anti-rabbit antibody (1:200, ab150077, Abcam) was added and nuclei were stained with DAPI (0.25 µg/mL). The fluorescence microscope Axioskop 2 mot plus was used for imaging and Ki-67 appeared in green and nuclei in blue.

[3] = test system: human articular chondrocytes (hAC); assay: Osteogenic differentiation of hAC, Alizarin Red S staining (calcium deposition); format: cell-based; conditions: 21 d osteogenic differentiation medium; 200 ng/mL CXCL12; inhibitors 1 µM; n = 5
Protocol: (§1) hAC were seeded in passage 2 at a density of 1 × 10^4 cells/cm^2 and osteogenic differentiation was induced on the next day by addition of osteogenic differentiation medium [ODM: DMEM, 10% FBS, 1 g/L glucose, 1% L-glutamine, 1% penicillin/streptomycin, 10 mM β-glycerophosphate disodium salt hydrate (Sigma-Aldrich), 0.1 µM dexamethasone, 200 µM 2-phospho-L-ascorbic acid trisodium salt]. […] Medium was changed twice a week and additives were refreshed every time. Cells cultured in BM served as negative control.
Evaluation of osteogenic differentiation was carried out by means of an Alizarin Red S staining which indicates calcium deposition. At first, cells were incubated in 70% ethanol for 1 h and subsequently stained with a 40 mM Alizarin Red S solution. For quantification, the cells were washed carefully and bound Alizarin Red S was dissolved in 10% Cetylpyridinium (Sigma-Aldrich). With a multimode microplate reader Infinite M200 Pro (Tecan Austria GmbH, Crailsheim, Germany), absorbance at 652 nm was measured and the amount of Alizarin Red S was calculated based on a standard calibration curve.

[4] = test system: human articular chondrocytes (hAC); assay: Gene expression during osteogenic differentiation of hAC (qRT-PCR); format: cell-based; conditions: 14 d osteogenic differentiation; 200 ng/mL CXCL12; inhibitors 1 µM; n = 4
Protocol: as §1

[5] = biological target: T2, ACKR3 (Homo sapiens, UniProt P25106); conditions: cited from earlier work
T2 sequence (P25106 whole entry): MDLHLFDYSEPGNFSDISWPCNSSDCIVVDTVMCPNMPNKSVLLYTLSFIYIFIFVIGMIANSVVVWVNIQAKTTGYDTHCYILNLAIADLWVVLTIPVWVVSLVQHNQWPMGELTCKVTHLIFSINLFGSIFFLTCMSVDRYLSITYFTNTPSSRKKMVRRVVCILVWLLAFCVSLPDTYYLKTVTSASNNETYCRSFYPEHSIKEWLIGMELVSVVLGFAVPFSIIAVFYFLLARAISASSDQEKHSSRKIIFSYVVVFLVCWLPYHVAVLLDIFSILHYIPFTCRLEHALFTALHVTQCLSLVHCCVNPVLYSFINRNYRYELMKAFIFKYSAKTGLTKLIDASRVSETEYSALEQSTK
T2 sequence (P32121 whole entry partner): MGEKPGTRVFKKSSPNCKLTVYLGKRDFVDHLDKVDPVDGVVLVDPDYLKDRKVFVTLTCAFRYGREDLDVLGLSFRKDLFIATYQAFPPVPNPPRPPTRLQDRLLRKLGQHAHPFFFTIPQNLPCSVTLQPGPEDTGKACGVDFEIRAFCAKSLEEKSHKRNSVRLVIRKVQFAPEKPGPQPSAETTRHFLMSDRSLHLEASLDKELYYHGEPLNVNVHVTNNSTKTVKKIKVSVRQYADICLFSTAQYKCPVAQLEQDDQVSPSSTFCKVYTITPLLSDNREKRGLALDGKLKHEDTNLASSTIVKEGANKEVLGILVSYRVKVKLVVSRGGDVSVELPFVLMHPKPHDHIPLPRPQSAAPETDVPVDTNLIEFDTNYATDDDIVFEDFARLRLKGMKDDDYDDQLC
Description: (§2) In case of CXCR4, there is evidence that binding of CXCL12 promotes a hypertrophic phenotype in chondrocytes, characterized by enhanced catabolic enzyme production (e.g., matrix metalloproteinase 13 (MMP-13)) and collagen type X expression.

[6] = test system: Dunkin Hartley guinea pigs; conditions: cited from earlier work
Description: as §2

[7] = test system: mice; conditions: cited from earlier work
Description: as §2

[8] = test system: mice; conditions: cited from earlier work; remark: listed apart in the source
Description: as §2, with “expression. […] It should also be considered that the pathophysiological mechanisms are not mediated by chondrocytes alone.” for “expression.”

[9] = test system: mouse; conditions: both inflammatory mouse models; cited from earlier work
Description: To date, three CXCR4 antagonist have been approved for clinical applications. However, these ligands are only approved for autologous stem cell transplantation in Non-Hodgkin’s lymphoma and the treatment of the WHIM syndrome, a rare congenital immunodeficiency disorder. One decade ago, another promising CXCR4 inhibitor was identified – the Endogenous Peptide Inhibitor of CXCR4, termed EPI-X4 [33]. EPI-X4 is a 16 amino acids long endogenous fragment of human serum albumin and specifically binds to CXCR4 thereby acting as an antagonist and inverse agonist. Using rational dru ...

[10] = test system: MSCs; conditions: AMD3100 400 µM, cited from earlier work
[11] = cited from earlier work
[12] = biological target: T2, ACKR3; assay: β-arrestin-2 recruitment at ACKR3, agonism (NanoBiT, transfected HEK293T cells); format: cell-based; design: SmBiT (NanoBiT fragment); expressed in transfected cells; host or cells: HEK293T; conditions: compound alone
Protocol: Fifteen thousand HEK293T cells were seeded in 92 µL complete DMEM medium (supplemented with 10% FCS, 1% L-Glutamine and 1% penicillin/streptomycin) and allowed to adhere overnight. On the next day cells were transfected with plasmids containing a β-arrestin-2 coupled to a SmBiT and a CXCR4 or ACKR3 construct coupled to the LgBiT of the NanoBiT protein–protein-interaction assay system. The SmBiT was coupled to the intracellular C-term of the receptor, while the LgBiT was coupled to the N-term of the ß-arrestin. For the transfection, LT1 transfection reagent was used according to manufacturer’s instructions. The next day, medium was changed to 100µL pre-warmed OptiMEM before luminescence measurements were initiated.
For agonism measurements, single compounds were added to the wells after 10 min of background measurement. Baseline correction was performed in the same manner and resulting AUCs were compared to the buffer-only control wells to calculate n-fold ß-arrestin induction.

[13] = test system: human articular chondrocytes (hAC); assay: alamarBlue cytotoxicity/cell proliferation assay; format: cell-based; conditions: 24 h; 200 ng/mL CXCL12; CXCR4 inhibitors 1 µM in combination with CXCL12 or alone; n = 5
Protocol: (§3) During experiments, hAC were cultured in medium with reduced FBS content (5%) and stimulated with 200 ng/mL CXCL12, 1 µM compounds and/or 10 ng/mL IL-1β. Stress-induced premature senescence (SIPS) was induced by Doxorubicin (Doxo) (Selleckchem) treatment. The senescent phenotype was confirmed as previously described. In brief, hAC were exposed to 0.1 µM Doxo for 7 days. Doxo was refreshed three times per week.
To quantitatively assess the cell proliferation and cytotoxicity of hAC, an alamarBlue (BioRad, Munich, Germany) assay was used. The assay is based on the conversion of non-fluorescent resazurin to fluorescent resorufin during cellular respiration. The fluorescence intensity of resorufin was measured at 550 nm excitation and 590 nm emission with a multimode microplate reader Infinite M200 Pro (Tecan, Crailsheim, Germany). Unstimulated cells served as baseline (100% cell viability).

[14] = test system: human cartilage explants; assay: Live/dead viability/cytotoxicity assay in cartilage explants; format: cell-based; conditions: day 7; 200 ng/mL CXCL12 with or without CXCR4 inhibitors 1 µM; n = 5
Protocol: A Live/Dead Viability/Cytotoxicity Assay (Live Technologies) was applied to determine the number of living and dead cells in cartilage explants. A small tissue section of 0.5 mm thickness was extracted from an unfixed cartilage explant and incubated for 40 min in a staining solution (1 µM calcein and 2 µM ethidium homodimer-1). Microscopic analysis was carried out with a Axioskop 2 mot plus microscope and using a z-stack model (AxioVision software).

[15] = test system: human articular chondrocytes (hAC); assay: Gene expression of hypertrophy markers in isolated hAC (qRT-PCR); format: cell-based; conditions: 48 h; 200 ng/mL CXCL12; n = 4
Protocol: as §3

[16] = test system: human articular chondrocytes (hAC); assay: Chondrogenic re-differentiation of hAC in pellet culture, histological scoring; format: cell-based; conditions: 28 d in chondrogenic differentiation medium; 200 ng/mL CXCL12; inhibitors 1 µM; n ≥ 4
Protocol: Pellet cultures were generated containing 3.5 × 10^5 hAC in passage 3 and were cultured in chondrogenic differentiation medium [SFM: DMEM, 4.5 g/L glucose, 1% L-glutamine, 1% penicillin/streptomycin, 200 μM 2-phospho-L-ascorbic acid trisodium salt, 0.1% Insulin-Transferrin-Selenium, 0.1 µM dexamethasone (Sigma-Aldrich), 40 µg/mL L-proline (Sigma-Aldrich), 1% pyruvate, 10 ng/mL rhTGF-β3 (PeproTech), 10 ng/mL rhBMP6 (PeproTech)]. The medium was changed twice per week and 200 ng/mL CXCL12 and 1 µM compounds was added. After 28 days, resulting cell pellets were embedded in paraffin and prepared for histology (Collagen type II-IHC and Safranin O staining). For evaluation, a previously established scoring system was used (supplementary Table S2).

[17] = test system: human articular chondrocytes (hAC); assay: Wound healing assay; format: cell-based; conditions: 24 h; 200 ng/mL CXCL12; inhibitors 1 µM; 5% FBS; n ≥ 5
Protocol: At first, a 2 Well Culture-Insert (Ibidi, Gräfelfing, Germany) was attached on a well of a 24 well plate. In each well of the insert, 70 µL cell suspension containing 20,000 hAC (passage 1 or 2) was added and incubated overnight. Next, medium with reduced FBS content (5%) was added and the insert carefully removed. […] Images were captured (Canon EOS 700D camera (Canon, Krefeld, Germany)) after 0 h and 24 h. Cells migrated into the gap were manually counted as previously described.

[18] = test system: human articular chondrocytes (hAC); assay: Live cell imaging of undirected migration; format: cell-based; conditions: 200 ng/mL CXCL12; inhibitors 1 µM; monitored for 10 h (method), legend says 48 h; normalized to untreated control; n = 5
Protocol: Subsequently, cell localization was monitored for 10 h with a Live Cell Imaging Microscope Leica DMI6000 I (Leica Microsystems, Wetzlar, Germany). Images were acquired every 30 min and at least 6 cells of each well were manually tracked with ImageJ 2.9.0. The average migration distance was calculated and values were normalized to the untreated control.

## CC(C)C[C@H](NC(=O)[C@@H](NC(=O)[C@@H]1CCCN1C(=O)[C@@H](NC(=O)[C@H](CO)NC(=O)[C@@H](NC(=O)[C@H](CCC(N)=O)NC(=O)[C@@H]1CCCN1C(=O)[C@@H](NC(=O)[C@H](CCCCN)NC(=O)[C@H](CCCCN)NC(=O)[C@@H](NC(=O)[C@H](Cc1ccc(O)cc1)NC(=O)[C@H](CCCNC(=N)N)NC(=O)[C@@H](NC(=O)[C@@H](N)CC(C)C)C(C)C)[C@@H](C)O)C(C)C)C(C)C)[C@@H](C)O)[C@@H](C)O)C(=O)O [EPI-X4] (H-LVRYTKKVPQVSTPTL-OH)
[1]
  IC50: 10.2 nM

## c1cc(CN2CCCNCCNCCCNCC2)ccc1CN1CCCNCCNCCCNCC1 [AMD3100, AMD3100 octahydrochloride hydrate]
[2]
  proliferation (Ki-67-positive cells): not altered
[3]
  Ca2+ deposition / matrix calcification (Alizarin Red S): could not find any influence
[4]
  expression of the hypertrophic marker COL10A1 during osteogenic differentiation: significantly reduced
  gene expression of osteogenic markers (ALPL, RUNX2, SP7, IBSP): could not find any influence
[5]
  activity at ACKR3: weak allosteric agonist
[6]
  spontaneous OA development: attenuate
[7]
  collagen-induced arthritis (CIA): attenuate
[8]; mice
  surgically-induced OA: attenuate
[8]; mouse model, delivery to subchondral bone via an osmotic pump
  severity of surgically-induced OA on inhibition in subchondral bone: reduced the severity
[9]
  activity in mouse models of atopic dermatitis and eosinophilic asthma: only poorly active
[10]
  matrix calcification during in vitro osteogenesis of MSCs: not affected
[10]; to a limited extend
  gene expression of osteogenic markers during in vitro osteogenesis of MSCs: impaired
[11]
  clinical peak plasma concentrations: ~ 1 μM
[12]; concentrations up to 10 µM
  agonistic activity to recruit β-arrestin-2 at ACKR3: weak agonistic activity

## CXCL12: C-X-C motif chemokine 12, ligand of CXCR4 and ACKR3; used as stimulus at 200 ng/mL
[13]
  cytotoxic effects in isolated chondrocytes (alamarBlue, relative fluorescence intensity): did not observe any cytotoxic effects
[14]
  cytotoxic effects in native cartilage tissue (live/dead assay): did not observe any cytotoxic effects
[15]
  gene expression of COL10A1 in isolated chondrocytes: did not significantly induce
  gene expression of MMP13 in isolated chondrocytes: did not significantly induce
[16]
  neocartilage formation, histologic assessment (score) of pellet culture: did not reveal any significant effect
[17]
  number of migrated hAC in wound healing assay: significantly increased
[18]
  migration distance of isolated hAC (live cell tracking): increased
[2]
  proliferation (Ki-67-positive cells): not altered
[3]
  Ca2+ deposition / matrix calcification (Alizarin Red S): could not find any influence
[4]
  expression of the hypertrophic marker COL10A1 during osteogenic differentiation: tended to increase
  gene expression of osteogenic markers (ALPL, RUNX2, SP7, IBSP): could not find any influence

## CC[C@H](C)[C@H](N)C(=O)N[C@@H](CC(C)C)C(=O)N[C@@H](CCCNC(=N)N)C(=O)N[C@@H](Cc1c[nH]c2ccccc12)C(=O)N[C@@H](CO)C(=O)N[C@@H](CCCNC(=N)N)C(=O)N[C@@H](CCCCN)C(=O)N[C@@H](CC(C)C)C(=O)N1CCC[C@H]1C(=O)N[C@@H](CS)C(=O)N[C@H](C(=O)N[C@@H](CO)C(=O)O)C(C)C [EPI-X4 JM#21]
[1]; read-out: IC50, inhibition of CXCL12-induced recruitment of β-arrestin-2 at CXCR4
  IC50: 164 nM
[12]; AUC vs buffer-only control
  EC50: 7800 nM
